How the values were obtained:
Format in all cases: cell-based
H1975 cells = experiment: In vitro tumor cell proliferation assay (Cell Titer-Glo) in H1975 cells; settings: NCI-H1975; H1975 human NSCLC expressing mutant HER1 (L858R,T790M); 72 hours exposure; read-out: IC50, activities in H 1975 cell lines
How it was run: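 After 72 h compound exposure at 37° C (top 10 uM down to 64 pM, 0.1% DMSO), viability of EGFR L858R/T790M-mutant H1975 cells was read as ATP luminescence.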

N87 = experiment: In vitro tumor cell proliferation assay (Cell Titer-Glo) in N87 cells; settings: N87 human gastric carcinoma overexpressing HER2 and HER1; 72 hours exposure; read-out: IC50, activities in N87 cell lines
How it was run: (§1)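 Viability after 72 h drug exposure at 37 °C was read as CellTiter-Glo ATP luminescence, giving IC50. Cells (2.5×10^3/well, RPMI + 10% FBS) were compound-treated one day post-seeding, 0.1% DMSO final: A431 overexpresses HER1, N87 overexpresses HER2 and HER1.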

A431 cells = experiment: In vitro tumor cell proliferation assay (Cell Titer-Glo) in A431 cells; settings: Homo sapiens, A-431, 72 h, A431 human epidermoid carcinoma overexpressing HER1; 72 hours exposure; read-out: IC50, activities in A431 cell lines
How it was run: as §1

SMILES | IC50 (H1975 cells) [nM] | IC50 (N87) [nM] | IC50 (A431 cells) [nM]
CN(C)C/C=C/C(=O)N1CCc2c(sc3ncnc(Nc4ccc(F)cc4F)c23)C1 [Example 162, N-(2,4-difluorophenyl)-7-[(2E)-4-(dimethylamino)but-enoyl]-5,6,7,8-tetrahydropyrido [4′,3′:4,5]thieno[2,3-d]pyrimidin-4-amine] | 1000 to 10000 | < 200 | 200 to 1000
Cc1ccc(F)cc1Nc1ncnc2sc3c(c12)CCN(C(=O)/C=C/CN(C)C)C3 [Example 166, 7-[(2E)-4-(dimethylamino)but-2-enoyl]-N-(5-fluoro-2-methylphenyl)-5,6,7,8-tetrahydropyrido [4′,3′:4,5]thieno[2,3-d]pyrimidin-4-amine] | 1000 to 10000 | 200 to 5000 | 1000 to 10000
Cc1cc(C)cc(Nc2ncnc3sc4c(c23)CCN(C(=O)/C=C/CN(C)C)C4)c1 [Example 167, 7-[(2E)-4-(dimethylamino)but-2-enoyl]-N-(3,5-dimethylphenyl)-5,6,7,8-tetrahydropyrido [4′,3′:4,5]thieno[2,3-d]pyrimidin-4-amine] | 1000 to 10000 | < 200 | 1000 to 10000
CCOc1cccc(Nc2ncnc3sc4c(c23)CCN(C(=O)/C=C/CN(C)C)C4)c1 [Example 168, 7-[(2E)-4-(dimethylamino)but-2-enoyl]-N-(3-ethoxyphenyl)-5,6,7,8-tetrahydropyrido [4′,3′:4,5]thieno[2,3-d]pyrimidin-4-amine] | 1000 to 10000 | < 200 | 1000 to 10000
CN(C)C/C=C/C(=O)N1CCc2c(sc3ncnc(NCc4ccccc4)c23)C1 [Example 169, N-benzyl-7-[(2E)-4-(dimethylamino)but-2-enoyl]-5,6,7,8-tetrahydropyrido [4′,3′:4,5]thieno[2,3-d]pyrimidin-4-amine] | 1000 to 10000 | < 200 | 1000 to 10000
CN(C)C/C=C/C(=O)N1CCc2c(sc3ncnc(Nc4ccc(C#N)c(Cl)c4)c23)C1 [Example 173, 2-chloro-4-({7-[(2E)-4-(dimethylamino)but-2-enoyl]-5,6,7,8-tetrahydropyrido [4′,3′:4,5]thieno[2,3-d]pyrimidin-4-yl}amino)benzonitrile] | 1000 to 10000 | < 200 | 1000 to 10000
CN(C)C/C=C/C(=O)N1CCc2c(sc3ncnc(Nc4cc(Cl)cc(Cl)c4)c23)C1 [Example 174, N-(3,5-dichlorophenyl)-7-[(2E)-4-(dimethylamino)but-2-enoyl]-5,6,7,8-tetrahydropyrido [4′,3′:4,5]thieno[2,3-d]pyrimidin-4-amine] | 1000 to 10000 | < 200 | 1000 to 10000
CN(C)C/C=C/C(=O)N1CCc2c(sc3ncnc(Nc4ccc(F)cc4)c23)C1 [Example 175, 7-[(2E)-4-(dimethylamino)but-2-enoyl]-N-(4-fluorophenyl)-5,6,7,8-tetrahydropyrido [4′,3′:4,5]thieno[2,3-d]pyrimidin-4-amine] | 1000 to 10000 | < 200 | 1000 to 10000
Cc1cccc(Nc2ncnc3sc4c(c23)CCN(C(=O)/C=C/CN(C)C)C4)c1 [Example 177, 7-[(2E)-4-(dimelhylamino)but-2-enoyl]-N-(3-methylphenyl)-5,6,7,8-tetrahydropyrido [4′,3′:4,5]thieno[2,3-d]pyrimidin-4-amine] | 1000 to 10000 | < 200 | 1000 to 10000
CCc1cccc(Nc2ncnc3sc4c(c23)CCN(C(=O)/C=C/CN(C)C)C4)c1 [Example 178, 7-[(2E)-4-(dimethylamino)but-2-enoyl]-N-(3-ethylphenyl)-5,6,7,8-tetrahydropyrido [4′,3′:4,5]thieno[2,3-d]pyrimidin-4-amine] | 1000 to 10000 | < 200 | 1000 to 10000
COc1cccc(Nc2ncnc3sc4c(c23)CCN(C(=O)/C=C/CN(C)C)C4)c1 [Example 179, 7-[(2E)-4-(dimethylamino)but-2-enoyl]-N-(3-methoxyphenyl)-5,6,7,8-tetrahydropyrido [4′,3′:4,5]thieno[2,3-d]pyrimidin-4-amine] | 1000 to 10000 | < 200 | 1000 to 10000
CN(C)C/C=C/C(=O)N1CCc2c(sc3ncnc(Nc4ccc(Cl)c(F)c4)c23)C1 [Example 180, N-(4-chloro-3-fluorophenyl)-7-[(2E)-4-(dimethylamino)but-2-enoyl]-5,6,7,8-tetrahydropyrido [4′,3′:4,5]thieno[2,3-d]pyrimidin-4-amine] | 1000 to 10000 | < 200 | 200 to 1000
CN(C)C/C=C/C(=O)N1CCc2c(sc3ncnc(Nc4cc(F)cc(Cl)c4)c23)C1 [Example 181, N-(3-chloro-5-fluorophenyl)-7-[(2E)-4-(dimethylamino)but-2-enoyl]-5,6,7,8-tetrahydropyrido [4′,3′:4,5]thieno[2,3-d]pyrimidin-4-amine] | 1000 to 10000 | < 200 | 1000 to 10000
Cc1cc(Nc2ncnc3sc4c(c23)CCN(C(=O)/C=C/CN(C)C)C4)ccc1F [Example 182, 7-[(2E)-4-(dimethylamino)but-2-enoyl]-N-(4-fluoro-3-methylphenyl)-5,6,7,8-tetrahydropyrido [4′,3′:4,5]thieno[2,3-d]pyrimidin-4-amine] | 1000 to 10000 | < 200 | 200 to 1000
CN(C)C/C=C/C(=O)N1CCc2c(sc3ncnc(Nc4ccc(Br)cc4)c23)C1 [Example 184, N-(4-bromophenyl)-7-[(2E)-4-(dimethylamino)but-2-enoyl]-5,6,7,8-tetrahydropyrido [4′,3′:4,5]thieno[2,3-d]pyrimidin-4-amine.] | 1000 to 10000 | < 200 | 200 to 1000
CN(C)C/C=C/C(=O)N1CCc2c(sc3ncnc(Nc4ccc5c(c4)CCC5)c23)C1 [Example 185, N-(2,3-dihydro-1H-inden-5-yl)-7-[(2E)-4-(dimethylamino)but-2-enoyl]-5,6,7,8-tetrahydropyrido [4′,3′:4,5]thieno[2,3-d]pyrimidin-4-amine] | 1000 to 10000 | < 200 | 200 to 1000
CCN(CC)C/C=C/C(=O)N1CCc2c(sc3ncnc(Nc4ccc(Cl)c(Cl)c4)c23)C1 [Example 188, N-(3,4-dichlorophenyi)-7-[(2E)-4-(diethylamino)but-2-enoyl]-5,6,7,8-tetrahydropyrido [4′,3′:4,5]thieno[2,3-d]pyrimidin-4-amine] | 200 to 1000 | < 200 | 200 to 1000

Further lines, results first:

IC50 (H1975 cells) [nM] | IC50 (N87) [nM] | IC50 (A431 cells) [nM] | SMILES
200 to 1000 | < 200 | 200 to 1000 | CN(C)C/C=C/C(=O)N1CCc2c(sc3ncnc(Nc4ccc(Cl)cc4)c23)C1 [Example 163, N-(4-chlorophenyl)-7-[(2E)-4-(dimethylamino)but-2-enoyl]-5,6,7,8-tetrahydropyrido [4′,3′:4,5]thieno[2,3-d]pyrimidin-4-amine]
200 to 1000 | < 200 | 200 to 1000 | CN(C)C/C=C/C(=O)N1CCc2c(sc3ncnc(Nc4cccc(Cl)c4)c23)C1 [Example 164, N-(3-chlorophenyl)-7-[(2E)-4-(dimethylamino)but-2-enoyl]-5,6,7,8-tetrahydropyrido [4′,3′:4,5]thieno[2,3-d]pyrimidin-4-amine]
< 200 | < 200 | 200 to 1000 | CN(C)C/C=C/C(=O)N1CCc2c(sc3ncnc(Nc4ccc(Cl)c(Cl)c4)c23)C1 [Example 165, N-(3,4-dichlorophenyl)-7-{(2E)-4-[dimethylamino]but-2-enoyl}-5,6,7,8-tetrahydropyrido[4′,3′:4,5]thieno[2,3-d]pyrimidin-4-amine]
200 to 1000 | < 200 | 200 to 1000 | CN(C)C/C=C/C(=O)N1CCc2c(sc3ncnc(Nc4ccc(Br)c(Cl)c4)c23)C1 [Example 172, N-(4-bromo-3-chlorophenyl)-7-[(2E)-4-(dimethylamino)but-2-enoyl]-5,6,7,8-tetrahydropyrido [4′,3′:4,5]thieno[2,3-d]pyrimidin-4-amine]
200 to 1000 | < 200 | 200 to 1000 | CN(C)C/C=C/C(=O)N1CCc2c(sc3ncnc(Nc4ccc(F)c(Br)c4)c23)C1 [Example 176, N-(3-bromo-4-fluorophenyl)-7-[(2E)-4-(dimethylamino)but-2-enoyl]-5,6,7,8-tetrahydropyrldo [4′,3′:4,5]thieno[2,3-d]pyrimidin-4-amine]
< 200 | < 200 | 200 to 1000 | Cc1cc(Nc2ncnc3sc4c(c23)CCN(C(=O)/C=C/CN(C)C)C4)ccc1Cl [Example 183, N-(4-chloro-3-methylphenyl)-7-[(2E)-4-(dimethylamino)but-2-enoyl]-5,6,7,8-tetrahydropyrido [4′,3′:4,5]thieno[2,3-d]pyrimidin-4-amine]
200 to 1000 | < 200 | 200 to 1000 | CCN(C)C/C=C/C(=O)N1CCc2c(sc3ncnc(Nc4cccc(Br)c4)c23)C1 [Example 186, N-(3-bromophenyl)-7-{(2E)-4-[ethyl(methyl)amino]but-2-enoyl}-5,6,7,8-tetrahydropyrido [4′,3′:4,5]thieno[2,3-d]pyrimidin-4-amine]
< 200 | < 200 | 200 to 1000 | CC(C)N(C)C/C=C/C(=O)N1CCc2c(sc3ncnc(Nc4ccc(Cl)c(Cl)c4)c23)C1 [Example 187, N-(3,4-dichlorophenyl)-7-{(2E)-4-[isopropyl(methyl)amino]but-2-enoyl}-5,6,7,8-tetrahydropyrido[4′,3′:4,5]thieno[2,3-d]pyrimidin-4-amine]

Reference: US8501755B2, “Tetrahydropyridothienopyrimidine compounds and methods of use thereof” (Bayer Intellectual Property GmbH, priority 2006, dated 2013)
